Data as given in patent publication US20250195492A1, “USE OF IPTACOPAN FOR THE TREATMENT OF LUPUS NEPHRITIS” (Novartis AG, priority 2022, published 2025).

Columns and labels:
[1] = tested on: PNH patients; assay: Phase 2 studies in PNH (CLNP023X2201 add-on to eculizumab, CLNP023X2204 monotherapy); type: in vivo, human
[2] = tested on: patients with IgAN; assay: Phase 2 study in patients with IgAN (CLNP023X2203), interim analysis; type: in vivo, human
[3] = Healthy volunteer studies CLNP023X2101 and CLNP023X1102 (SAD and MAD); type: in vivo
[4] = tested on: patients with C3G; assay: Phase 2 study in patients with C3G (CLNP023X2202), interim analysis; type: in vivo, human; conditions: 200 mg b.i.d.
[5] = tested on: alternative pathway; assay: Wieslab assay (least sensitive alternative pathway biomarker), FIH trial CLNP023X2101; type: in vivo, human; conditions: 200 mg b.i.d.
Description: The study will first investigate the treatment effect of iptacopan 200 mg b.i.d. on top of SoC compared to SoC alone (Part 1). This dose was chosen based on the least sensitive alternative pathway biomarker (Wieslab assay); it ensures >90% target inhibition in more than 70% of individuals, as determined from FIH trial CLNP023X2101. Dose range finding with doses between 10 to 200 mg b.i.d was performed in Phase 2 studies in IgAN, C3G and PNH.

[6] = 200 mg b.i.d., add-on to eculizumab and monotherapy, majority of patients, preliminary data
[7] = 200 mg b.i.d. compared to placebo
[8] = 102 subjects, SAD 10 to 400 mg, MAD 10 to 200 mg b.i.d. for 2 weeks

Q: What does the source list for `CCO[C@H]1CCN(Cc2c(OC)cc(C)c3[nH]ccc23)[C@H](c2ccc(C(=O)O)cc2)C1` [iptacopan, 4-((2S,4S)-(4-ethoxy-1-((5-methoxy-7-methyl-1H-indol-4-yl)methyl)piperidin-2-yl))benzoic acid]?
A: LDH levels [1, 6]: reduction in LDH levels; hemoglobin in the absence of RBC transfusions [1, 6]: improvements in hemoglobin; hemolysis ([1]; 200 mg b.i.d., preliminary data): control of both intra- and extravascular hemolysis; safety and tolerability ([1]; both PNH studies): overall safe and well tolerated; safety profile [2]: overall well-tolerated safety profile; UPCR [2, 7]: clinically meaningful UPCR reduction; eGFR levels [2, 7]: stable/improving; dose-response effect on UPCR ([2]; at 90 days, primary endpoint): statistically significant dose-response effect; deaths, SAEs, AEs leading to study drug discontinuation [3, 8]: No deaths, serious adverse events (SAEs), or adverse events (AEs) leading to study drug discontinuation were observed; tolerability [3, 8]: well tolerated; solubility ([3]; as reported from the healthy volunteer studies): high; absorption ([3]; healthy volunteers, SAD/MAD): fast; tolerability [4]: well-tolerated; eGFR ([4]; at 12 weeks): stabilization; reduction in UPCR ([4]; at 12 weeks): 49%; proportion of individuals with >90% target inhibition [5]: more than 70%; target inhibition (Wieslab assay) ([5]; reached in more than 70% of individuals): > 90%
